Experimental data published in US20110263046A1, “Methods of identification of novel ligands for modulation of orphan nuclear receptor RAR-related orphan receptor-gamma (NR1F3) activity” (PHENEX PHARMACEUTICALS AG, priority 2008, published 2011).
pEC50, pIC50: −log10 of the molar value. “Also recorded” adds a separate entry of the source.

Experiments:
[1] = test system: IL-17 production by peripheral blood human mononuclear cells (PBMCs); assay: PBMC stimulation and IL-17 secretion assay (ELISA); format: cell-based; conditions: 72 h; for mean concentration of IL-17: anti-CD3/anti-CD28 stimulated PBMCs
Protocol: Cryopreserved peripheral blood human mononuclear cells (PBMCs) were used for the experiments. The cells were thawed in CTL-Anti-Aggregate-Wash™ solution and washed once in CTL Wash™ medium with benzonase. PBMCs, suspended in CTL serum-free test media (CTL-Test™ Medium), were plated into 96-well BD BioCoat Anti-Human CD3 T-Cell activation plate at a total of 1×10^5 cells/well in triplicate. The cells were incubated with anti-CD28 (2 μg/ml) in the absence or presence of LE540, LE135 and Am580 at different concentrations for 72 h at 37° C. with 5% CO2. The compounds were added at the time 0. The supernatants were harvested and assayed for IL-17 according to the protocol from the corresponding ELISA kit (Invitrogen). The detection range was 15.6-1,000.0 pg/ml. Data are presented as means±s.d. values.
In the control experiments PBMCs were stimulated with anti-CD3 (plate) and anti-CD28 in the presence of 0.1% DMSO. The mean concentration of IL-17 was 1,003.36±45.18 pg/ml. In contrast, the concentration of IL-17 in non stimulated cells was under the detection range (<15.6 pg/ml). […] The compounds were added to the cells at time 0 together with the anti-CD28 mAb. […] The lower concentration of LE540 (0.1 μM) was also very potent in PBMCs. […] The amount of IL-17 protein was down regulated after treatment of cells with 3, 1, and 0.3 μM of LE135 (FIG. 3).

[2] = biological target: T1, RORgamma ligand binding domain (Homo sapiens, UniProt P51449); assay: TR-FRET ligand sensing assay: RORγ-LBD / coactivator peptide interaction; format: biochemical; set-up: made in house; host or cells: E. coli BL21(DE3); conditions: for pIC50: antagonistic
T1 sequence (P51449 267-518): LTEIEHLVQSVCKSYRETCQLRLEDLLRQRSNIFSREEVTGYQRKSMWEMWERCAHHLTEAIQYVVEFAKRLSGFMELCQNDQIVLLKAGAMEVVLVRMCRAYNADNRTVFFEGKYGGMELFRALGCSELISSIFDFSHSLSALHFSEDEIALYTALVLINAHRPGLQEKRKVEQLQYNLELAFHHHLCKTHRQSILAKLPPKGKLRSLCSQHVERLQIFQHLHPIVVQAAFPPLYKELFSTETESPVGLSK
Protocol: As described in more detail in the examples, a GST-RORgamma-LBD fusion protein is expressed and purified from E. coli. The TR-FRET assays were performed in a final volume of 25 μl in individual wells of a 384 well plate using a Tris-based buffer system: 10-50 mM Tris-HCl pH 7.9; 50-100 mM KCl, 1-10 mM MgCl2; 20-100 ng/μl BSA), containing 20-60 ng/well recombinantly expressed RORγ-LBD fused to GST, 200-600 nM N-terminally biotinylated peptide (e.g. derived from SRC-1 or TIF-2), 50-500 ng/well Streptavidin-xIAPC conjugate (Prozyme) and 2-20 ng/well Eu W1024-antiGST (Perkin Elmer).
The human RORg ligand binding domain (LBD) was expressed in E. coli strain BL21(DE3) as an N-terminal glutathione-S-transferase (GST) tagged fusion protein. The DNA encoding the RORg ligand binding domain was cloned into vector pDEST15 (Invitrogen). […] Expression in pDEST15 is controlled by a IPTG inducible T7 promoter and cloning and transformation of E. coli was done essentially according to standard protocols known to persons skilled in the art and supplied by Invitrogen.
Determination of the interaction of a ligand with the human RORgamma ligand binding domain was done by using a Ligand Sensing Assay based on Time-resolved Fluorescence Energy Transfer (TR-FRET).
This method measures the ability of putative ligands to modulate the interaction between the purified bacterial expressed RORg ligand binding domain (LBD) and synthetic N-terminally biotinylated peptides which are derived from nuclear receptor coactivator proteins such as but not limited to SRC1 (NcoA1), SRC2 (NcoA2,TIF2), SRC3 (NcoA3), PGC1α, PGC1β, CBP, GRIP1, TRAP220, RIP140.
(§1) The ligand binding domain (LBD) of RORγ was expressed as fusion protein with GST in […] cells using the vector pDEST15. Cells were lysed by lysozyme-treatment and sonication, and the fusion proteins purified over glutathione sepharose (Pharmacia) according to the manufacturers instructions. For screening of compounds for their influence on the RORγ-peptide interaction, the LANCE technology (Perkin Elmer) was applied. This method relies on the binding dependent energy transfer from a donor to an acceptor fluorophor attached to the binding partner of interest. For ease of handling and reduction of background from compound fluorescence LANCE technology makes use of generic fluorophore labels and time resolved detection assays were done in a final volume of 25 μl in a 384 well plate, in a Tris-based buffer (20 mM Tris-HCl pH 7.9; 60 mM KCl, 5 mM MgCl2; 35 ng/μl BSA), containing 20-60 ng/well recombinantly expressed RORγ-LBD fused to GST, 200-600 nM N-terminally biotinylated peptide, 200 ng/well Streptavidin-xIAPC conjugate (Prozyme) and 6-10 ng/well Eu W1024-antiGST (Perkin Elmer). DMSO content of the samples was kept at 1%. After generation of the assay mix the potentially RORγ modulating ligands were diluted. After his step, the assay was equilibrated for one hour in the dark at room temperature in FIA-plates black 384 well (Greiner). The LANCE signal was detected by a Perkin Elmer VICTOR2V™ Multilabel Counter. […] Ligands that promote the complex formation induce a concentration-dependent increase in time-resolved fluorescent signal.
Equation: Sigmoidal dose-response (variable slope) Y=Bottom+(Top-Bottom)/(1+10̂((LogEC50-X)*HillSlope))
This is identical to the “four parameter logistic equation”. The EC50 or IC50 values are calculated using this equation.

[3] = biological target: T1, RORgamma ligand binding domain; assay: TR-FRET assay variation: agonist titration on top of saturating antagonist (4 μM LE540); format: biochemical; set-up: made in house; host or cells: E. coli BL21(DE3)
Source text: as §1
In a variation of the assay described above, an antagonistic compound was added in a saturating concentration (4 μM) to the assay mix. Then the agonistic compounds were diluted and the assay was equilibrated for one hour in the dark.

[4] = biological target: T1, RORgamma ligand binding domain; assay: Radioligand displacement assay (3H-25-hydroxycholesterol); set-up: made in house; host or cells: E. coli BL21 (DE3); conditions: FIG. 1; for apparent potency and efficacy of displacement: comparison among ligands; for displacement of 3H-25-hydroxycholesterol bound to RORgamma-LBD: dose dependent, radioligand at saturating concentration (500 nM)
Source text: This method measures the ability of putative ligands to displace a radioactively labeled compound that is bound to the RORgamma ligand binding domain.
The ligand binding domain (LBD) of RORγ was expressed as fusion protein with GST in BL-21 cells using the vector pDEST15. Cells were lysed by lysozyme-treatment and sonication, and the fusion proteins purified over glutathione sepharose (Pharmacia) according to the manufacturers instructions. For screening of compounds for their ability to bind to RORγ, commercially available 25-26,27-[…]-hydroxycholesterol
(Perkin Elmer, NET674250UC) was bound to the protein and displacement by non radioactive ligands was observed. The assay was done in a final volume of 100 μl in a 96-well glutathione and scintillant coated microplate (Perkin Elmer, SMP109001PK). […] Compounds to be tested were titrated and added to the protein-radioligand mix. DMSO content of the samples was kept at 1%. After addition of the compounds, the assay was equilibrated for 30 min at room temperature. After this incubation the assay plate wells were washed twice with Tris buffer (20 mM Tris-HCl pH 7.5; 60 mM KCl, 5 mM MgCl2) and subsequently measured for 500 sec per well in a LUMIstar OPTIMA (BMG).

[5] = Homo sapiens, PBMC, 0.3 μM compound, stimulated PBMCs, read-out: percentage of IL-17 inhibition
[6] = agonistic, peptide TIF2(628-658), read-out: EC50
[7] = agonistic, assay includes 4 μM LE540, peptide TIF2(628-658), read-out: apparent EC50

| Compound | production of IL-17 by human PBMCs (qualitative) ([1]; stimulated PBMCs) | pIC50 ([2]; peptide SRC1(676-700)) | pIC50 ([2]; peptide TIF2(628-658)) | pEC50 [2, 6] | pEC50 [3, 7] | apparent potency and efficacy of displacement [4] | displacement of 3H-25-hydroxycholesterol bound to RORgamma-LBD [4] | also measured |
| --- | --- | --- | --- | --- | --- | --- | --- | --- |
| CN1c2cc3c(cc2N=C(c2ccc(C(=O)O)cc2)c2ccccc21)C(C)(C)CCC3(C)C [LE135] | inhibit the production of IL-17 | 4.71 | 4.88 | – | – | – | – | inhibition at 0.3 µM [1, 5]: 35.8%; inhibition at 1 µM ([1]; Homo sapiens, PBMC, 1 μM compound, stimulated PBMCs, read-out: percentage of IL-17 inhibition): 61.9%; inhibition at 3 µM ([1]; Homo sapiens, PBMC, 3 μM compound, stimulated PBMCs, read-out: percentage of IL-17 inhibition): 75.9% |
| Am580 | inhibit the production of IL-17 | 4.63 | 4.70 | – | – | – | – | level of IL-17 ([1]; 1 μM compound, stimulated PBMCs): within the control range; level of IL-17 ([1]; 5 μM compound, stimulated PBMCs): within the control range; percentage of IL-17 inhibition ([1]; 10 μM compound, stimulated PBMCs): 69.73% |
| COC(=O)CC[C@@H](C)[C@H]1CC[C@H]2[C@@H]3CC=C4C[C@@H](O)CC[C@]4(C)[C@H]3CC[C@]12C [Cholenic Acid Methyl Ester] | – | – | – | 7.56 | 6.51 | – | – | pEC50 ([2]; agonistic, peptide TIF2(628-658), listed as cholenic acid methyl ester, read-out: EC50): 7.56 |
| CC(C)CC[C@@H](O)[C@@H](C)[C@H]1CC[C@H]2[C@@H]3CC=C4C[C@@H](O)CC[C@]4(C)[C@H]3CC[C@]12C [22R-Hydroxycholesterol] | – | – | – | – | – | – | – | pEC50 [2]: 7.78; pEC50 [3]: 6.81 |
| CN1c2cc3c(cc2N=C(c2ccc(C(=O)O)cc2)c2ccc4ccccc4c21)C(C)(C)CCC3(C)C [LE540] | inhibit the production of IL-17 | 5.44 | 5.31 | – | – | highest | able to displace; also recorded: dose-dependent competitive displacement | mean concentration of IL-17 ([1]; 0.1 μM compound): 659.39 pg/mL; mean concentration of IL-17 ([1]; 0.3 μM compound): 289.69 pg/mL; inhibition at 0.1 µM ([1]; Homo sapiens, PBMC, 0.1 μM compound, stimulated PBMCs, read-out: percentage of IL-17 inhibition): 34.3%; inhibition at 0.3 µM [1, 5]: 71.1% |
| C[C@H](CCC(=O)N(C)C)[C@H]1CC[C@H]2[C@@H]3CC=C4C[C@@H](O)CC[C@]4(C)[C@H]3CC[C@]12C [DMHCA] | – | – | – | 7.97 | 7.07 | – | – | – |
| CC(C)(C)c1cc(C(=O)C=Cc2ccc(C(=O)O)cc2)cc(C(C)(C)C)c1 [Ch55] | – | 4.91 | 4.95 | – | – | lowest potency and efficacy | able to displace | displacement of 3H-25-hydroxycholesterol bound to RORgamma-LBD ([4]; listed as CH55): dose-dependent competitive displacement |
| C/C(=C\c1ccc(C(=O)O)cc1)c1ccc2c(c1)C(C)(C)CCC2(C)C [TTNPB] | – | 5.07 | 5.09 | – | – | less potent but seems rather efficient | dose-dependent competitive displacement | displacement of 3H-25-hydroxycholesterol bound to RORgamma-LBD ([4]; listed as TTNBP): able to displace |
| C[C@@H](CO)CCC[C@@H](C)[C@H]1CC[C@H]2[C@@H]3CC=C4C[C@@H](O)CC[C@]4(C)[C@H]3CC[C@]12C [(25R)-26-Hydroxycholesterol] | – | – | – | 7.85 | 6.84 | – | – | – |
